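Growth conditions: 96-well plates. Treatment: test compound, 48 hours, 5 concentrations. Analysis: linear interpolation between bracketing concentrations; unreached endpoints set to highest concentration. TGI marks complete inhibition of growth.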
What was measured:
Assay in all cases: NCI-60 cell line screen, 48 h
[1] = test system: K-562 leukemia
[2] = test system: OVCAR-8 ovarian
[3] = test system: SF-539 CNS
[4] = test system: SW-620 colon
[5] = test system: HT29 colon
[6] = test system: OVCAR-4 ovarian
[7] = test system: UACC-257 melanoma
[8] = test system: DU-145 prostate
[9] = test system: SK-MEL-2 melanoma
[10] = test system: CCRF-CEM leukemia
[11] = test system: NCI/ADR-RES ovarian
[12] = test system: RPMI-8226 leukemia
[13] = test system: MCF7 breast
[14] = test system: UACC-62 melanoma

SMILES	TGI [1] [µM]	TGI [2] [µM]	TGI [3] [µM]	TGI [4] [µM]	TGI [5] [µM]	TGI [6] [µM]	TGI [7] [µM]	TGI [8] [µM]	TGI [9] [µM]	TGI [10] [µM]	TGI [11] [µM]	TGI [12] [µM]	TGI [13] [µM]	TGI [14] [µM]
CC1OC(OC2C[C@](O)(C(=O)CBr)Cc3c(O)c4c(c(O)c32)C(=O)c2ccccc2C4=O)C(F)C(O)C1O (some centres not stated)	> 38.8	> 100	30.4	> 45.8	> 56.1	97.9	39.6	63.2	79.5	3.04	> 67.7	17.7	> 100	34.5
CCN(CCCl)c1cc(CN(C)C)cc(NC(=O)c2ccc(C(=O)Nc3ccccc3)cc2)c1	8.31	6.34	2.26	0.339	0.414	1.87	3.27	6.92	0.519	1.14	11.4	3.14	2.79	4.03
CCSc1nc(C)nc2c1sc1nc3ccccc3n12	> 100	> 100	> 100	> 100	> 100	> 100	> 100	> 100	> 100	> 100	> 100	> 100	> 100	> 100
COc1ccc2c(c1)OC1c3ccccc3OCC21 (configuration not stated)	> 100	> 100	> 100	> 100	93.9	> 100	> 100	> 100	> 100	> 100	> 100	> 100	> 100	> 100
COC1C(OC(C)=O)CC(=O)OC(C)C/C=C/C=C\C(O)C(C)CC(CC=O)C1OC1OC(C)C(OC2CC(C)(O)C(OC(=O)CC(C)C)C(C)O2)C(N(C)C)C1O (configuration not stated)	> 100	> 100	> 100	> 100	> 100	> 100	> 100	> 100	> 100	> 100	> 100	> 100	> 100	> 100
COc1cc(OC2OC(CO)C(O)C(O)C2O)c2c(c1)O[C@@H]1[C@H](O)Oc3cc(OC)c(OC)cc3[C@]1(O)C2=O (some centres not stated)	> 25	> 25	> 25	> 25	> 25	> 25	> 25	> 25	> 25	> 25	> 25	> 25	> 25	> 25
C[C@H]1[C@H](C)CC[C@]2(C(=O)OC3OC(CO)C(O)C(O)C3O)CC[C@]3(C)C(=CC[C@@H]4[C@@]5(C)C[C@@H](O)[C@@H]6OC(=O)c7cc(O)c(O)c(O)c7-c7c(cc(O)c(O)c7O)C(=O)OC[C@]6(CO)[C@@H]5CC[C@]43C)[C@H]12 (some centres not stated)	> 100	> 100	> 100	> 63.3	> 55.8	40.1	> 100	> 100	> 100	69.2	> 100	> 100	21.8	> 100
COc1ccc2c(c1)c(=O)c1c(NCCCN(C)C)ccc3ncn2c31	> 56.1	9.4	17	15.3	8.21	13	27	18.7	22.1	45.3	16.4	> 27.7	8.4	28.7
C(/C=C/Nc1ccc(-c2ccccc2)cc1)=Nc1ccc(-c2ccccc2)cc1	> 100	> 100	> 100	> 100	> 100	> 100	> 100	> 100	> 100	> 100	> 100	> 100	> 100	> 100
COc1ccc2[nH]c3c(C)c4ncccc4c(C)c3c2c1	> 10	> 10	> 10	4.26	6.98	> 10	> 10	> 10	> 10	> 10	> 10	7.56	4.81	> 10
COC(=O)/C=C/c1cnc2c(c1)oc(=O)n2C	> 100	> 100	> 100	> 100	> 100	> 100	> 100	> 100	> 100	> 100	> 100	> 100	> 100	> 100
CN(/N=C/c1ccccc1C(=O)O)C1=NCCCCN1	> 100	> 100	> 100	> 100	> 100	> 100	> 100	> 100	> 100	> 100	> 100	> 100	> 100	> 100
COC(=O)[C@]1(Cc2ccc3ccccc3c2)CCCCCCN1C(=O)c1ccccc1	> 100	> 48.5	> 54.1	> 60.3	> 45.2	26	25	> 68.1	25.9	> 53.7	> 49.7	17.9	> 49.1	> 51.3

Reference: PubChem BioAssay (NCI)
